Reference: patent US20050209319A1, “Treatment of local pain” (XenoPort, Inc., priority 2004, published 2005)
Like-named read-outs stand apart in the source and are kept apart here.

Experiments:
[1] = injection into hindpaw of rats pretreated with 2% formalin injection; cited from earlier work
Caco-2 cell monolayers = test: Permeability across Caco-2 cell monolayers (cultured human epithelial cell monolayer assay); type: in vitro ADME; conditions: for Permeability coefficient (Papp) A to B: apical to basolateral; for Permeability coefficient (Papp) A to B / Permeability coefficient (Papp) B to A: donor 100-200 μM, 1 hr at 37° C, apical pH 6.5, basolateral pH 7.4; for Permeability coefficient (Papp) B to A: basolateral to apical
Source text: The following comparative test was run to determine the permeability of gabapentin and a prodrug of gabapentin across a cultured monolayer of human mucosal tissue cells (intestinal epithelial cells). Intestinal epithelial cells have an apical side (i.e., the side normally facing the gut lumen) and a basolateral side (i.e., the side normally facing the patient's internal blood carrying tissues). Both the permeability of the compounds through the monolayer of cells from apical to basolateral (A to B) and basolateral to apical (B to A) were measured.
Caco-2 cells were obtained from the ATCC (Manassas, Va.) and cultured as indicated by the supplier. Caco-2 cells were seeded into 24-well transwell plates with 3 μm filters (Corning/Costar, Acton, Mass.) at a density of 500,000 cells/well and allowed to differentiate in the transwell plates for 21 days. The test compounds were dissolved into either pH 6.5 (apical MES (4-morpholineethane sulfonic acid) buffer) or pH 7.4 (basolateral HBSS (Hanks balanced salt solution) buffer) at concentrations of 100 to 200 μM and added to the appropriate chambers. Samples were removed from the receiving chambers at various times and the permeability was measured by determining the concentration of prodrug and gabapentin (produced by esterase cleavage within the epithelial cells) by LC/MS/MS (liquid chromatography/mass spectroscopy/mass spectroscopy). Apparent permeability coefficients (“Papp”) were calculated by standard methods (B. H. Stewart et al., Pharm. Res., 1995, 12, pp. 693-699). Integrity of the monolayer was confirmed by determining the permeability of 3H-inulin. If greater than 0.5% of the inulin was detected in the receiving chamber, the transwells were discarded.

[2] = Parallel artificial membrane permeability assay (PAMPA); type: in vitro ADME; conditions: for Passive permeability in vitro across artificial membranes (in words): PAMPA assays; for Papp at 2 h, 50 µM: PAMPA
Method: Artificial membranes were prepared by adding 4 μL of 2% (w/v) dioleoylphosphatidyl-choline in dodecane onto the hydrophobic filters ([…] polyvinylidene fluoride) on the base of the wells of a 96-well donor plate (Millipore, Bedford, Mass.). Gabapentin or a gabapentin prodrug (150 μL of 50 μM solution in 0.1 M Tris buffer, pH 6.5 or pH 7.4) was added to the donor wells in triplicate. The gabapentin prodrug used was 1-{[(α-isobutanoyloxyethoxy)carbonyl]-aminomethyl}-1-cyclohexane acetic acid. The plate was placed onto a 96-well acceptor plate (Agilent, Wilmington, Del.), in which each well contained 400 μL 0.1 M Tris, pH 7.4. Following incubation for two hours at room temperature, samples of the donor and receiver chambers were removed for analysis by LC/MS/MS. The permeability coefficient through the artificial membrane (“Pam”) was calculated using standard methods (Sugano et al., Int. J. Pharm., 2001, 228, pp. 181-188). The artificial membrane permeability coefficient, Pam, of 1-{[(α-isobutanoyloxyethoxy)carbonyl]-aminomethyl}-1-cyclohexane acetic acid was about 5 to 30 times higher than the Pam for gabapentin at the two test pH values as shown in Table 2.

Compound | Effect on nociceptive behavior [1] | Passive permeability in vitro through Caco-2 cell monolayers (in words) (Caco-2 cell monolayers; Caco-2) | Permeability coefficient (Papp) A to B (Caco-2 cell monolayers) | Permeability coefficient (Papp) B to A (Caco-2 cell monolayers) | Passive permeability in vitro across artificial membranes (in words) [2] | Papp at 2 h, 50 µM ([2]; donor chamber pH 6.5, 50 μM, two hours at room temperature, acceptor pH 7.4, read-out: Permeability coefficient (Pam) pH 6.5) | Papp at 2 h, 50 µM ([2]; donor chamber pH 7.4, 50 μM, two hours at room temperature, acceptor pH 7.4, read-out: Permeability coefficient (Pam) pH 7.4) | Passive permeability in vitro through Caco-2 cell monolayers (in words) (Caco-2 cell monolayers) | Papp compared with the Papp for gabapentin (Caco-2 cell monolayers; from the basolateral to the apical side) | Permeability coefficient (Pam) pH 6.5 ([2]; donor chamber pH 6.5, 50 μM, two hours at room temperature, acceptor pH 7.4) | Permeability coefficient (Pam) pH 7.4 ([2]; donor chamber pH 7.4, 50 μM, two hours at room temperature, acceptor pH 7.4)
NCC1(CC(=O)O)CCCCC1 [Gabapentin] | significantly reduced nociceptive behavior | limited passive permeability | 3.2 (cm/sec) × 10^6 | 3.4 (cm/sec) × 10^6 | limited passive permeability | 0.02 ×10⁻⁶ cm/s | 0.026 ×10⁻⁶ cm/s | – | – | – | –
CC(OC(=O)NCC1(CC(=O)O)CCCCC1)OC(=O)C(C)C (stereo not drawn) [1-{[(α-isobutanoyloxyethoxy)carbonyl]-aminomethyl}-1-cyclohexane acetic acid] | – | – | 31 (cm/sec) × 10^6 | 5.7 (cm/sec) × 10^6 | relatively high passive permeability | – | – | relatively high passive permeability | significantly higher | 0.65 (cm/sec) × 10^6 | 0.095 (cm/sec) × 10^6
